Drawing on patent US10166218B2, “3-(1H-indol-2-yl)-1H-pyrazolo[3,4-C]pyridines and therapeutic uses thereof” (Samumed, LLC, priority 2015, dated 2019), this text covers EC50, Emax and inhibition for twelve molecules.

The structures appear in SMILES notation. Bounds are passed on as bounds.

Experiment [1] has as its system primary human mesenchymal stem cells (hMSCs). Kind of experiment: Induction of chondrogenesis in primary human mesenchymal stem cells (chondrogenic nodules). The experiment is classed as cell-based. As to conditions: 144 h, 6 days; for EC50: concentration required to induce 50% levels of chondrogenesis of TGF-β3 positive control, read-out: Conc (nM) of 50% TGF-β3 activity; for Emax: nodules, relative to TGF-β3 (10 ng/mL) positive control, read-out: Max. Activity as % TGF-β3 activity. The procedure:
Representative compounds were screened using primary human mesenchymal stem cells (hMSCs) to determine their ability to induce chondrogenesis (process by which cartilage is developed).
Primary human mesenchymal stem cells (hMSCs) were purchased from Lonza (Walkersville, Md.) and expanded in Mesenchymal Stem Cell Growth Media (Lonza). Cells between passage 3 and 6 were used for the experiments.
Each compound was dissolved in DMSO as a 10 mM stock and used to prepare compound source plates. Serial dilution (1:3, 6-point dose-response curves from 2700 nM to 10 nM) and compound transfer was performed using the ECHO 550 (Labcyte, Sunnyvale, Calif.) into 96-well clear bottom assay plates (Greiner Bio-One) with appropriate DMSO backfill for a final DMSO concentration of 0.03%. hMSCs were plated at 20,000 cells/well in 250 μL/well Incomplete Chondrogenic Induction Medium (Lonza; DMEM, dexamethasone, ascorbate, insulin-transferrin-selenium [ITS supplement], gentamycin-amphotericin [GA-1000], sodium pyruvate, proline and L-glutamine). TGF-β3 (10 ng/mL) was used as a positive control for differentiation while negative control wells were treated with 75 nL DMSO for normalization and calculating EC50 values. Cells were incubated at 37° C. and 5% CO2 for 6 days. To image chondrogenic nodules, the cells were fixed using 4% formaldehyde (Electron Microscopy Sciences), and stained with 2 μg/mL Rhodamine B (Sigma-Aldrich) and 20 μM Nile Red (Sigma-Aldrich) [Johnson K., et. al, A Stem Cell-Based Approach to Cartilage Repair, Science, (2012), 336(6082), 717-721]. The nodules imaged (4 images per well at 4× magnification) by excitation at 531 nm and emission at 625 nm and quantified using the CellInsight CX5 (Thermo Scientific). Number of nodules in each well was normalized to the average of 3 DMSO treated wells on the same plate using Excel (Microsoft Inc.). The normalized averages (fold change over DMSO) of 3 replicate wells for each compound concentration were calculated. Due to solubility limitations of some of the compounds, curve fitting was incomplete leading to inaccurate EC50 determinations.
Using TGF-β3 as a positive control, the concentration of representative compounds required to induce 50% levels of chondrogenesis is reported. In addition, the maximum activity of each compound and the respective dose that each compound reached maximum chondrogenesis activity is reported.

For experiment [2], the system named is Wnt activity (Sp5-Luc reporter, TCF/LEF binding sites) in SW480 colon carcinoma cells. Kind of experiment: Screening assay for Wnt activity: Sp5-Luc reporter gene assay in stably transduced SW480 cells. The experiment is classed as cell-based. As to conditions: Homo sapiens; for EC50: overnight incubation. In outline: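 Luminescence (BrightGlo) was normalised to DMSO-only wells and fitted with a four-parameter variable-slope model for EC50; beyond 10 μM, % inhibition at 10 μM is given. Stable Sp5-Luc SW480 reporter cells, 4,000/well in 1% FBS, were exposed overnight at 37 °C to compounds, top 10 μM, 1:3 dilutions, 0.1% DMSO.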
In general terms: A reporter such as luciferase makes a cellular process visible.

For `CCNCc1cncc(-c2cc3c(-c4cc5c(-c6ccc(F)cc6)cccc5[nH]4)n[nH]c3cn2)c1` [Compound 34, N-((5-(3-(4-(4-Fluorophenyl)-1H-indol-2-yl)-1H-pyrazolo[3,4-c]pyridin-5-yl)pyridin-3-yl)methyl)ethanamine], in experiment [1], the EC50 is 900 nM and the Emax amounted to 268%. In experiment [2], this molecule displayed an EC50 of 382 nM.
For `Fc1ccc(-c2cccc3[nH]c(-c4n[nH]c5cnc(-c6cncc(CN7CCCC7)c6)cc45)cc23)cc1` [Compound 42, 3-(4-(4-Fluorophenyl)-1H-indol-2-yl)-5-(5-(pyrrolidin-1-ylmethyl)pyridin-3-yl)-1H-pyrazolo[3,4-c]pyridine] the same measures were 300 nM, 164% and 1840 nM.
On the same counts, the results for `Nc1cncc(-c2cc3c(-c4cc5c(-c6ccccc6F)cccc5[nH]4)n[nH]c3cn2)c1` [Compound 59, 5-(3-(4-(2-Fluorophenyl)-1H-indol-2-yl)-1H-pyrazolo[3,4-c]pyridin-5-yl) pyridin-3-amine] are 30 nM, 94% and 296 nM.
In the case of `Fc1ccccc1-c1cccc2[nH]c(-c3n[nH]c4cnc(-c5cncc(CN6CCCCC6)c5)cc34)cc12` [Compound 71, 3-(4-(2-Fluorophenyl)-1H-indol-2-yl)-5-(5-(piperidin-1-ylmethyl)pyridin-3-yl)-1H-pyrazolo[3,4-c]pyridine], the Emax in experiment [1] came out at 18%. The EC50 in experiment [2] is 2090 nM.
On the same counts, the results for `CCC(=O)Nc1cncc(-c2cc3c(-c4cc5c(-c6cccnc6)cccc5[nH]4)n[nH]c3cn2)c1` [Compound 85, N-(5-(3-(4-(Pyridin-3-yl)-1H-indol-2-yl)-1H-pyrazolo[3,4-c]pyridin-5-yl)pyridin-3-yl)propionamide] are 101% and 305 nM.
With `c1cncc(-c2cc3c(-c4cc5c(-c6cccnc6)cccc5[nH]4)n[nH]c3cn2)c1` [Compound 88, 5-(Pyridin-3-yl)-3-(4-(pyridin-3-yl)-1H-indol-2-yl)-1H-pyrazolo[3,4-c]pyridine], in experiment [1], the EC50 is 30 nM and the Emax was 141%. Further, the EC50 in experiment [2] came to 260 nM.
For `Fc1ccccc1-c1cccc2[nH]c(-c3n[nH]c4cnc(-c5cn[nH]c5)cc34)cc12` [Compound 567, 3-(4-(2-Fluorophenyl)-1H-indol-2-yl)-5-(1H-pyrazol-4-yl)-1H-pyrazolo[3,4-c]pyridine], the EC50 in experiment [2] stood at 203 nM.
With `c1cc(N2CCCCC2)c2cc(-c3n[nH]c4cnc(-c5cncc(OC6CCCCC6)c5)cc34)[nH]c2c1` [Compound 635, 5-(5-(Cyclohexyloxy)pyridin-3-yl)-3-(4-(piperidin-1-yl)-1H-indol-2-yl)-1H-pyrazolo[3,4-c]pyridine], the EC50 in experiment [2] stood at 3840 nM.
Molecule `c1cc(-c2ccoc2)c2cc(-c3n[nH]c4cnc(-c5cn[nH]c5)cc34)[nH]c2c1` [Compound 711, 3-(4-(Furan-3-yl)-1H-indol-2-yl)-5-(1H-pyrazol-4-yl)-1H-pyrazolo[3,4-c]pyridine] showed an EC50 in experiment [2] of 203 nM.
One may read the inhibition as how much of the control response was suppressed. As for `c1csc(-c2cccc3[nH]c(-c4n[nH]c5cnc(C6CCNCC6)cc45)cc23)c1` [Compound 725, 5-(Piperidin-4-yl)-3-(4-(thiophen-2-yl)-1H-indol-2-yl)-1H-pyrazolo[3,4-c]pyridine], the inhibition at 10 µM in experiment [2] (10 μM, read-out: percent inhibition at 10 μM (given for EC50 of >10 μM)) stood at 25.9%. This molecule registered an EC50 in experiment [2] of more than 10000 nM.
`Cn1cc(-c2cc3c(-c4cc5ncccc5[nH]4)n[nH]c3cn2)cn1` [Compound 1022, 5-(1-Methyl-1H-pyrazol-4-yl)-3-(1H-pyrrolo[3,2-b]pyridin-2-yl)-1H-pyrazolo[3,4-c]pyridine] came in with an EC50 in experiment [2] of 47 nM.
The molecule `CN(C)CCOc1cncc(-c2cc3c(-c4cc5ncccc5[nH]4)n[nH]c3cn2)c1` [Compound 1029, 2-((5-(3-(1H-Pyrrolo[3,2-b]pyridin-2-yl)-1H-pyrazolo[3,4-c]pyridin-5-yl)pyridin-3-yl)oxy)-N,N-dimethylethan-1-amine] had an EC50 in experiment [2] of 3060 nM.
